Bridge positions count the residues as written; N and C are the ends. Peptide text beside a SMILES is read from it.
Columns and labels:
thermolysin = biological target: T1, thermolysin (Bacillus thermoproteolyticus, UniProt P00800); experiment: Time course rheology of thermolysin-induced bulk gelation and gel stability; type: in vitro ADME; settings: 10 mM in 1× DPBS pH 7.4, thermolysin 1:4500, 37 °C, continuous rheological measurement
T1 construct: purchased Promega V4001
T1 sequence (P00800 233-548): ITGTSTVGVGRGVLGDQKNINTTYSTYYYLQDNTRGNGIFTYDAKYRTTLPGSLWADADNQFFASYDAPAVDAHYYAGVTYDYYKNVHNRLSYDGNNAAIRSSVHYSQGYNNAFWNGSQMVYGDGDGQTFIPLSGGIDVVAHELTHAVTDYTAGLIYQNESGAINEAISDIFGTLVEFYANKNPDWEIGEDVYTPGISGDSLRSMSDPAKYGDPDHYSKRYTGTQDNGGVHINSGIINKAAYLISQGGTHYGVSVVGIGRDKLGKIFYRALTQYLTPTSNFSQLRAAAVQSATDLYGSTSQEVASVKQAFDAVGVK
Experimental: All peptide samples were prepared at 10 mM peptide, except for those used to assess the effect of SAP functionalization with respect to weight (15 mg mL^−1). Viscous and viscoelastic properties were assessed using a stress-controlled rheometer (TA Instruments AR-G2) equipped with a Peltier plate to control temperature and a 20 mm diameter parallel plate geometry. Unless otherwise stated all measurements were taken at an angular frequency of 2.5 rad s^−1, strain of 0.5%, and temperature of 37 °C. Measurements were performed with a gap height of 1000 µm and repeated three times (except for step-strain and time course measurements) to ensure reproducibility. To prevent water evaporation, mineral oil was wrapped around the edge of the geometry at the air–sample interface. For viscoelastic measurements the apparatus was used in oscillatory mode. […] The dynamic moduli of the hydrogels were measured as a function of frequency in the range 0.25–100 rad s^−1 at a strain of 0.5%. Continuous step-strain oscillations were used to monitor hydrogel healing through disruption (3 min, 100% strain) and recovery (15 min, 0.5% strain) cycles (n = 3). For viscosity measurements the apparatus was used in steady-state flow mode. The viscosity of the samples was measured as a function of shear rate in the range 0.1–10 s^−1 (5% tolerance). […]

red blood cells (RBCs) = experiment: Hemolysis assay of red blood cells; type: cell-based; settings: positive control at 1%, defines 100% hemolysis; human RBCs, 1 h, 37 °C; mean of n = 4
Experimental: RBCs were isolated by centrifugation of 40 mL citrated whole human blood at 500 × g for 5 min, followed by gentle washes with 150 mM NaCl (×1) and 1× DPBS (×3). Isolated RBCs were diluted 1:50 into 1× DPBS (pH 7.4) and lightly agitated to prevent settling. Briefly, 190 µL of dilute RBCs and 10 µL of peptide stock or additive (20× final concentration) were mixed and added to a 96-well plate (n = 4 repeats), covered, and incubated at 37 °C for 1 h. Plates were centrifuged at 500 × g to pellet intact RBCs using a centrifuge equipped with a microplate rotor. Supernatant (100 µL) was transferred to a new 96-well plate, taking care not to disturb the pellet. Absorbance of the supernatant was measured at 540 nm to detect released hemoglobin. To calculate % hemolysis, absorbances were corrected for background absorbance from untreated vehicle and then normalized to 1% Triton X-100-treated RBCs to represent 100% hemolysis. %Hemolysis was calculated according to the following equation:2 %Hemolysis=Absexperiemental-Absnegativecontrol/Abspositivecontrol-Absnegativecontrol×100, where Absexperiemental is the average well absorbance pertaining to RBCs pertaining to the additive sample being analyzed, Absnegative control is the average well absorbance for RBCs incubated with vehicle (1× DPBS), and Abspositive control is the average well absorbance for RBCs containing 1% Triton X-100. […]

[1] = test system: platelet-poor plasma (PPP)
Experimental: For all measurements, peptide stocks in 1× DPBS were prepared such that the final concentrations (v/v) in blood or plasma were 1:10, 1:100, 1:500,1:1000, 1:5000, 1:10,000, and 1:20,000 (peptide/fluid volume). Controls with collagen as a procoagulant initial platelet-adhesive surface (0.095 mg mL^−1 or 1:240 dilution) or with calcium chelated by sodium citrate utilized 1× DPBS as a vehicle to ensure consistent blood dilution in all experiments. Peptide stocks, whole human blood, isolated RBCs, and PPP were warmed to 37 °C immediately prior to use. Plate reader measurements were conducted on an EnSpire Multimode Plate Reader with 96-well tissue culture plates (TCP).
PPP was isolated from citrated whole human blood through two rounds of centrifugation at 2000 × g for 10 min and collection of the upper two-third layer. Briefly, 100 µL of PPP, 50 µL of peptide stock or additive (4× final concentration), and 50 µL of CaCl2 (50 mM) were mixed and added to a 96-well plate and incubated at 37 °C for kinetics measurements. For each sample, n = 6 repeats were conducted. Coagulation profiles were obtained by measuring well absorbance at 405 nm at 30 s intervals for 60 min. Onset to clotting was detected as a sharp increase in sample turbidity.

## CC(C)C[C@@H]1NC(=O)CNC(=O)[C@H](CC(C)C)NC(=O)[C@@H]2CCCN2C(=O)[C@H](CC(C)C)NC(=O)[C@H](CC(=O)O)NC(=O)[C@H](CC(C)C)NC(=O)[C@H](CCCCN)NC(=O)[C@H](CC(C)C)NC(=O)[C@H](CC(=O)O)NC(=O)[C@H](CC(C)C)NC(=O)[C@H](CCCCN)NC(=O)[C@H](CC(C)C)NC(=O)[C@H](CC(=O)O)NC(=O)[C@H](CC(C)C)NC(=O)[C@H](CCCCN)NC(=O)[C@@H](N)CSSC[C@@H](C(N)=O)NC(=O)CNC(=O)[C@H](C)NC1=O [KLDLCyclic] (H-CKLDLKLDLKLDLPLGLAGC-NH2; disulfide 1-20)
thermolysin
  Stability of viscoelastic properties of resulting gel in the presence of thermolysin: no change for up to 3 days

## Triton X-100
Red blood cells (RBCs)
  %Hemolysis: 100.00%

## collagen
[1]
  Pro-thrombotic profile in PPP: lack of change in pro-thrombotic profiles
